{
  "source": "ChEMBL document CHEMBL4622908",
  "about": "“Two new secondary metabolites isolated from Avena sativa L. (Oat) seedlings and their effects on osteoblast differentiation” (Bioorg Med Chem Lett, 2020)",
  "key": {"C2C12 [1]": {"test_system": "C2C12", "assay": "Induction of osteoblast differentiation in mouse C2C12 cells assessed as increase in ALP expression by ALP staining based assay", "format": "functional, cell-based"}, "C2C12 [2]": {"test_system": "C2C12", "assay": "Cytotoxicity against mouse C2C12 cells assessed as reduction in cell viability at 0.3 to 10 uM by CCK8 assay", "format": "cell-based", "settings": "c2c12, 10 µM"}},
  "data": [
    {"smiles": "COC1=CC23/C=C/C(=O)OC[C@@H]4O[C@H](O[C@@H]5CC(C(=O)O)=C[C@@H](OC(=O)/C=C/c6cc(OC)c(c2c6)OC3C[C@H]1O)[C@H]5O)[C@@H](O)[C@H](O)[C@H]4O", "note": "(stereo not given in full)", "values": [
      {"measurement": "Activity", "setting": "C2C12 [1]", "result": "Dose-dependent effect"},
      {"measurement": "Activity", "setting": "C2C12 [2]", "result": "Non-Toxic"}
    ]},
    {"smiles": "O=c1cc(-c2ccc(O)cc2)oc2cc(O)c([C@@H]3O[C@H](CO)[C@@H](O)[C@H](O)[C@H]3O[C@@H]3OC[C@H](O)[C@H](O)[C@H]3O)c(O)c12", "values": [
      {"measurement": "Activity", "setting": "C2C12 [1]", "result": "Dose-dependent effect"},
      {"measurement": "Activity", "setting": "C2C12 [2]", "result": "Non-Toxic"}
    ]},
    {"smiles": "C[C@@H]1O[C@@H](O[C@H]2[C@H](O[C@H]3CC[C@@]4(C)C(=CC[C@H]5[C@@H]6C[C@@H]7O[C@]8(CC[C@@](C)(CO[C@@H]9O[C@H](CO)[C@@H](O)[C@H](O)[C@H]9O)O8)[C@@H](C)[C@@H]7[C@@]6(C)CC[C@@H]54)C3)O[C@H](CO)[C@@H](O[C@@H]3O[C@H](CO)[C@@H](O)[C@H](O[C@@H]4O[C@H](CO)[C@@H](O)[C@H](O)[C@H]4O)[C@H]3O)[C@@H]2O)[C@H](O)[C@H](O)[C@H]1O", "values": [
      {"measurement": "Activity", "setting": "C2C12 [1]", "result": "Dose-dependent effect"},
      {"measurement": "Activity", "setting": "C2C12 [2]", "result": "Non-Toxic"}
    ]},
    {"smiles": "COc1cc(O)c2c(=O)cc(-c3ccc(O)cc3)oc2c1[C@@H]1O[C@H](CO)[C@@H](O)[C@H](O)[C@H]1O[C@@H]1O[C@@H](C)[C@H](O)[C@@H](O)[C@H]1O", "values": [
      {"measurement": "Activity", "setting": "C2C12 [1]", "result": "Dose-dependent effect"},
      {"measurement": "Activity", "setting": "C2C12 [2]", "result": "Non-Toxic"}
    ]},
    {"smiles": "O=c1cc(-c2ccc(O)c(O)c2)oc2cc(O)c([C@@H]3O[C@H](CO[C@@H]4OC[C@@H](O)[C@H](O)[C@H]4O)[C@@H](O)[C@H](O)[C@H]3O)c(O)c12", "values": [
      {"measurement": "Activity", "setting": "C2C12 [1]", "result": "Dose-dependent effect"},
      {"measurement": "Activity", "setting": "C2C12 [2]", "result": "Non-Toxic"}
    ]}
  ]
}
